Data as given in US8207189B2, “Compound having affinity for amyloid” (Nihon Medi-Physics Co., Ltd., priority 2007, dated 2012).

Columns and labels:
[1] = rats, [11C]-labeled; cited from earlier work
[2] = transferability into brain and clearance after intravenous injection; type: in vivo, rat; conditions: male Wistar rats, intravenous injection
Description: Using Compound 1 (Example 10) and Compound 2 (Example 11), a time course change of radioactive accumulation in brain of male Wistar rats (7-week old) was measured.
A diethyl ether solution of Compound 1 (Example 10) prepared in Example 3, a diethyl ether solution of Compound 2 (Example 11) prepared in Example 6 and a diethyl ether solution of [^123I]-IMPY (Comparative Example 5) prepared in Reference Example 1 were each diluted with 10 mg/mL ascorbic acid-containing physiological saline solution to adjust to a radioactive concentration of 8-12 MBq/mL. 0.05 mL each of the prepared sample solutions was injected under thiopental anesthesia into the tail vein of the rats. The rats were sacrificed by bleeding from abdominal artery, and brains were removed and subjected to measurement of mass of brains and further subjected to measurement of radioactivity (hereinafter referred to as A in this Example) with a single channel analyzer (detector type: SP-20 manufactured by OHYO KOKEN KOGYO Co., Ltd.) 2, 5, 30 and 60 minutes after the injection. Further, the radioactivity level of the rest of the whole body was measured in the same manner as above (hereinafter referred to as B in this Example). Using these measurement results, radioactive distribution per unit weight of brain (% ID/g) at the respective time points were calculated in accordance with the following formula (3).
Three animals were used for the experiment at the respective time points.
Using Compound 4 and Compound 6, a time course change of radioactive accumulation in brain of male Wistar rats (7-week old) was measured.
Compound 4 (Example 22), Compound 6 (Example 23) and a solution of [^123I]-IMPY (Comparative Example 8) prepared above in Reference Example 1 were each diluted with a 10 mg/mL ascorbic acid-containing physiological saline solution to prepare solutions (20-31 MBq/mL in radioactive concentration). 0.05 mL each of the prepared sample solutions was injected under thiopental anesthesia into the tail vein of the respective Wistar rat (7-week old). The rats were sacrificed by bleeding from abdominal artery, and brains were removed and subjected to measurement of mass of brains and further subjected to measurement of radioactivity (hereinafter referred to as A in this Example) with a single channel analyzer (detector type: SP-20 manufactured by OHYO KOKEN KOGYO Co., Ltd.) 2, 5, 30 and 60 minutes after the injection. Further, the radioactivity level of the rest of the whole body was measured in the same manner as above (hereinafter referred to as B in this Example). Using these measurement results, radioactive distribution per unit weight of brain (% ID/g) at the respective time points were calculated in accordance with the following formula (5).

[3] = test system: amyloid (aggregated Aβ1-40) injected into amygdaloid nucleus; assay: ex vivo autoradiogram using rats of amyloid injected model (Aβ1-40); type: in vivo, rat; conditions: brain slice 60 minutes after intravenous injection
Description: (§1) (1) Aβ1-40 (manufactured by Peptide Institute, INC.) was dissolved in phosphate buffer (pH 7.4) and shaken at 37° C. for 72 hours, to obtain a 1 mg/mL suspension of aggregated Aβ (hereinafter referred to as amyloid suspension in this Example).
(§2) (2) 2.5 μL (corresponding to […]) of the amyloid suspension was injected into an amygdaloid nucleus on one side of a male Wistar rat (7-week old). As a control, 2.5 μL of a phosphate buffered physiological saline solution (pH 7.4) was injected into an amygdaloid nucleus on the other side of the rat. The rats were examined 1 day after the injection of the amyloid suspension and the phosphate buffered physiological saline solution (pH 7.4).
(§3) (3) [^123I]-IMPY was dissolved in a 10 mg/mL ascorbic acid-containing physiological saline solution to obtain a sample solution (29 MBq/mL in radioactivity concentration in the sample solution). This solution was injected under thiopental anesthesia into the rat through the tail vein (dosage: 0.5 mL, dosed radioactivity: 14.5 MBq equivalent).
(§4) (4) Brain was removed 60 minutes after the injection to prepare a brain slice of 10 μm in thickness with a microtome (type: CM3050S, manufactured by LEICA). The brain slice was exposed to an imaging plate for 20 hours, and then image analysis was carried out by use of a Bio-imaging Analyzer (type: BAS-2500; manufactured by FUJIFILM Corporation). […]

[4] = biological target: T1, amyloid (aggregated Aβ1-40) injected into amygdaloid nucleus (Homo sapiens, UniProt P05067); assay: as above; type: in vivo, rat; conditions: brain slice 60 minutes after intravenous injection, Aβ1-40
T1 construct: Aβ1-40 (manufactured by Peptide Institute, INC.) was dissolved in phosphate buffer (pH 7.4); purchased Peptide Institute, INC
Description: as §1, §2, §3, §4

[5] = partition coefficient based on the octanol extraction method; type: physicochemical; conditions: octanol / 10 mmol/L phosphate buffer pH 7.4
Description: Partition coefficients based on the octanol extraction method (hereinafter referred to as log Poctanol) were measured, which are generally known as an indicator of permeability of compounds through the blood-brain barrier (hereinafter referred to as BBB).
A diethyl ether solution of Compound 1 prepared in Example 3 (Example 8), a diethyl ether solution of Compound 2 prepared in Example 6 (Example 9), and a diethyl ether solution of [^123I]-IMPY prepared in Reference Example 1 (Comparative Example 4) were each diluted with 10 mg/mL ascorbic acid-containing physiological saline solution, and adjusted to a radioactive concentration of 20-30 MBq/mL. To 2 mL of octanol, 10 μL each of the prepared sample solutions was added, 2 mL of 10 mmol/L phosphate buffer (pH 7.4) was added, followed by stirring for 30 seconds. After the mixture was centrifuged with a low-speed centrifuge (2000 rpm×60 min.), the octanol layer and the water layer were sampled each in an amount of 1 mL, and subjected to measurement of radioactivity count with an autowell gamma system (Type: ARC-301B, manufactured by Aloka). Using the obtained radioactivity count, log Poctanol was calculated in accordance with the equation (2).
A diethyl ether solution (Example 20) of Compound 4 prepared in Example 16, a diethyl ether solution (Example 21) of Compound 6 prepared in Example 19, and a diethyl ether solution (Comparative Example 7) of [^123I]-IMPY were each diluted with a 10 mg/mL ascorbic acid-containing physiological saline solution to adjust to a radioactive concentration of 20-30 MBq/mL. To 2 mL of octanol, 10 μL each of the prepared sample solution was added, and 2 mL of 10 mmol/L phosphate buffer (pH 7.4) was further added, followed by stirring for 30 seconds. After the mixture was centrifuged with a low-speed centrifuge (2000 rpm×60 min.), the octanol layer and the water layer were sampled each in an amount of 1 mL, and subjected to measurement of radioactivity count with an autowell gamma system (Type: ARC-301B, manufactured by Aloka). Using the obtained radioactivity count, log Poctanol was calculated in accordance with the equation (4).

T1 sequence (P05067 672-711): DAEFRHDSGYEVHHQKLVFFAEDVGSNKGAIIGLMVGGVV

Structure (SMILES) | clearance from normal tissues [1] | Radioactive distribution per unit weight in brain, After 2 min. ([2]; Table 5) | Radioactive distribution per unit weight in brain, After 2 min. ([2]; Table 7) | Radioactive distribution per unit weight in brain, After 5 min. ([2]; Table 5) | Radioactive distribution per unit weight in brain, After 5 min. ([2]; Table 7) | Radioactive distribution per unit weight in brain, After 30 min. ([2]; Table 5) | Radioactive distribution per unit weight in brain, After 30 min. ([2]; Table 7) | Radioactive distribution per unit weight in brain, After 60 min. ([2]; Table 5) | Radioactive distribution per unit weight in brain, After 60 min. ([2]; Table 7) | accumulation in white matter where amyloid was not injected [3] | accumulation of radioactivity in amygdaloid nucleus on the amyloid-injected side [4] | logPoctanol value ([5]; Table 4 (Examples 8-9, Comparative Example 4)) | logPoctanol value ([5]; Table 6 (Examples 20-21, Comparative Example 7))
CNc1ccc(/C=C/c2ccc(O)cc2)cc1 [SB-13, (E)-4-methylamino-4′-hydroxystilbene] | it cannot be said that the clearance is sufficiently fast | – | – | – | – | – | – | – | – | – | – | – | –
CN(C)c1ccc(-c2cn3cc([123I])ccc3n2)cc1 [[^123I]-IMPY, reference compound] | – | 1.19 % ID/g | 1.19 % ID/g | 0.97 % ID/g | 0.97 % ID/g | 0.23 % ID/g | 0.23 % ID/g | 0.09 % ID/g | 0.09 % ID/g | non-specific accumulation was observed | marked accumulation of radioactivity | 1.9 | 2.1
